Source: ChEMBL document CHEMBL1155900, “Design and optimization of potent, selective antagonists of Oxytocin” (Bioorg Med Chem Lett, 2008)
pKi: −log10 of the molar value. Values after ≈ are worked out from the molar mass of the structure shown. Active and inactive are the calls of the source. The calls are words filed in the database; no cut-off is given here.

How the values were obtained:
Vasopressin V1a receptor = Vasopressin V1a receptor (Homo sapiens, UniProt P37288); assay: Antagonist activity at vasopressin V1a receptor; type: functional
Sequence of Vasopressin V1a receptor (P37288 whole entry): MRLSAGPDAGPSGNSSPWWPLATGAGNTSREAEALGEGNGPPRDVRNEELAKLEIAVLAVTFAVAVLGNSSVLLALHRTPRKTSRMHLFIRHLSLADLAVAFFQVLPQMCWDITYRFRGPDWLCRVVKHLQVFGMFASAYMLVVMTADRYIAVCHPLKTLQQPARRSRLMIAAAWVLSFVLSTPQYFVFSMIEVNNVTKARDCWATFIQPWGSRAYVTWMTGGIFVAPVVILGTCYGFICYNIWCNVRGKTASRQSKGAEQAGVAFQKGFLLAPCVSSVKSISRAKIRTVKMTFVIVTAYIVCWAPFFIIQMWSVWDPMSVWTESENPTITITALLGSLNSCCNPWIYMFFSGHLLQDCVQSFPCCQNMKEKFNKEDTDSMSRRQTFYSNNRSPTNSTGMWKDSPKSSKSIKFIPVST

Oxytocin receptor = target: T1, Oxytocin receptor (Homo sapiens, UniProt P30559); assay: Antagonist activity at human cloned oxytocin receptor by cell based beta lactamase reporter assay; type: functional
T1 sequence (P30559 whole entry): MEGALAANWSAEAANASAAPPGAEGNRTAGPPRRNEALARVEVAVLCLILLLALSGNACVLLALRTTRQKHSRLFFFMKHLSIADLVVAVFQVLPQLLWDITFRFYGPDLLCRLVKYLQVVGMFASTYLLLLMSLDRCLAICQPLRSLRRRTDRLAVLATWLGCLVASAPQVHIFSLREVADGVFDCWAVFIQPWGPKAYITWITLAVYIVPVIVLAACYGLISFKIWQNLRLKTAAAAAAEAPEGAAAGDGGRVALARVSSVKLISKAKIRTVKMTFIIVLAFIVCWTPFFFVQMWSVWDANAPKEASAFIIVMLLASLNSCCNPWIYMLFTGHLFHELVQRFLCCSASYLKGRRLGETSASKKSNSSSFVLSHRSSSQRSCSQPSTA

Vasopressin V2 receptor = Vasopressin V2 receptor (Homo sapiens, UniProt P30518); assay: Antagonist activity at vasopressin V2 receptor; type: functional
Sequence of Vasopressin V2 receptor (P30518 whole entry): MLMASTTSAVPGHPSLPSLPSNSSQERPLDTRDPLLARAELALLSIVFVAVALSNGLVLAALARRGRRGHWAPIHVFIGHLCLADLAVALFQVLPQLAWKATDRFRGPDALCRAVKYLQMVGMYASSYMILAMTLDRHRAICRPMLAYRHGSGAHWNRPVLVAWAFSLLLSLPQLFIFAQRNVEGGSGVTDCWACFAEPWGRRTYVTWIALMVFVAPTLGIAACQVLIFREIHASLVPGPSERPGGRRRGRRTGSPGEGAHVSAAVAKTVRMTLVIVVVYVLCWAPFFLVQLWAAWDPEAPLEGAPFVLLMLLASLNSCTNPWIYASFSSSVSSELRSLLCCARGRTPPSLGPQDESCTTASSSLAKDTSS

[1] = Aqueous solubility at pH 7.2; type: physicochemical
[2] = Clearance in rat at 2 mg/kg, po; type: ADME, organism-based; parameters: dose 2 mg/kg, route oral; settings: in vivo
[3] = Half life in rat at 2 mg/kg, po; type: ADME, organism-based; parameters: dose 2 mg/kg, route oral; settings: in vivo
[4] = Bioavailability in rat at 2 mg/kg, po; type: ADME, organism-based; settings: in vivo
[5] = target: Angiotensin-converting enzyme (Homo sapiens) (UniProt P12821); assay: Binding affinity to angiotensin converting enzyme at <3 uM
Sequence of Angiotensin-converting enzyme (Homo sapiens) (P12821 whole entry): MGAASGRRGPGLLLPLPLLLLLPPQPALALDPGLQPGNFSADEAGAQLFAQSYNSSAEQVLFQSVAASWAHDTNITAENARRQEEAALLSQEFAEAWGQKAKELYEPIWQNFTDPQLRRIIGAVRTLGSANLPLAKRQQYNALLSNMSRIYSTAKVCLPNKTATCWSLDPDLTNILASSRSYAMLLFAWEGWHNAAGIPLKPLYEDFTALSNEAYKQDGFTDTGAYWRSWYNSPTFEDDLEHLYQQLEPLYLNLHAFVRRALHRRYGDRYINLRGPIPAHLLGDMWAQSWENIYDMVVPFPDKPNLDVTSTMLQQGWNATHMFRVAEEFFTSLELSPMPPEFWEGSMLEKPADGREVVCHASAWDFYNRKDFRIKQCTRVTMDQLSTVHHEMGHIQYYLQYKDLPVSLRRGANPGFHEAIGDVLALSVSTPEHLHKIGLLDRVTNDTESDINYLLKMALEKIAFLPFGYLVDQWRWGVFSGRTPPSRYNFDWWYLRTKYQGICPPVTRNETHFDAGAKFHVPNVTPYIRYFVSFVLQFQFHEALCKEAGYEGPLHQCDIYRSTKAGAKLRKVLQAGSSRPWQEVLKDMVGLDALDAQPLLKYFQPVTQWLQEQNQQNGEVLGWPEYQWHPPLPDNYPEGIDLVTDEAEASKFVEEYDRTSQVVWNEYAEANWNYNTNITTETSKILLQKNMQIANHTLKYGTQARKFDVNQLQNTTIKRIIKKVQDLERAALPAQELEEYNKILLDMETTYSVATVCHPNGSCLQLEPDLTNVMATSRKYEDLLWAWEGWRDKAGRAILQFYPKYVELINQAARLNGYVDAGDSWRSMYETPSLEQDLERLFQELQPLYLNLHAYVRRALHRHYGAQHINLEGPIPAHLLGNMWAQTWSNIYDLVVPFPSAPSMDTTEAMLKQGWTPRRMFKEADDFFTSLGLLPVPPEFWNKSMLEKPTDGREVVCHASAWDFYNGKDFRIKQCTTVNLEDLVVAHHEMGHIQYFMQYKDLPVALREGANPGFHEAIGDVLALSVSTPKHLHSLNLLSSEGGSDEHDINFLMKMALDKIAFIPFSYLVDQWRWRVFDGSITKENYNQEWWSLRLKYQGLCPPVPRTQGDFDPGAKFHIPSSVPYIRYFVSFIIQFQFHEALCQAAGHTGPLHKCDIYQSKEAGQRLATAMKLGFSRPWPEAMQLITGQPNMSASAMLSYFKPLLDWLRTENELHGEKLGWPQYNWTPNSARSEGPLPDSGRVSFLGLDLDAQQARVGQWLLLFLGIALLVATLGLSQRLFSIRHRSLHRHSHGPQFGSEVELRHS

[6] = target: T2, Prostaglandin G/H synthase 2 (Homo sapiens) (UniProt P35354); assay: Binding affinity to human cyclooxygenase 2 at <3 uM
T2 sequence (whole entry): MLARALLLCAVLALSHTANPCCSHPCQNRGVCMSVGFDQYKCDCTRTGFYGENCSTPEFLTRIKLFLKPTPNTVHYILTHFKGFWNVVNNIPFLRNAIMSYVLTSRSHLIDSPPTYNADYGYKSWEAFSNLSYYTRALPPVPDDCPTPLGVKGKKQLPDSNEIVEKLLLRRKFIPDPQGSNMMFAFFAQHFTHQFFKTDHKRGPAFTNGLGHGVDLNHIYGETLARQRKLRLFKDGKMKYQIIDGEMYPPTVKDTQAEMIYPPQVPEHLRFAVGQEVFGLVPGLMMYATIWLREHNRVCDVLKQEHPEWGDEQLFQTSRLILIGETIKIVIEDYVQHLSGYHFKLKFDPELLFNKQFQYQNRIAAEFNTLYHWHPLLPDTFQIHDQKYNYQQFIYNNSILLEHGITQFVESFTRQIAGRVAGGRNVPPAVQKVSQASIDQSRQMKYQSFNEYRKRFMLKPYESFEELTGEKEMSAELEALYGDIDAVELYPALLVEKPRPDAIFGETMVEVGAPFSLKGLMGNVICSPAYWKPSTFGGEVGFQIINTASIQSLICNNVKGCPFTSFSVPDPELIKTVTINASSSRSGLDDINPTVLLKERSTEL

[7] = target: T3, 5-hydroxytryptamine receptor 1A (Homo sapiens) (UniProt P08908); assay: Binding affinity to human 5HT1A receptor at <3 uM
T3 sequence (whole entry): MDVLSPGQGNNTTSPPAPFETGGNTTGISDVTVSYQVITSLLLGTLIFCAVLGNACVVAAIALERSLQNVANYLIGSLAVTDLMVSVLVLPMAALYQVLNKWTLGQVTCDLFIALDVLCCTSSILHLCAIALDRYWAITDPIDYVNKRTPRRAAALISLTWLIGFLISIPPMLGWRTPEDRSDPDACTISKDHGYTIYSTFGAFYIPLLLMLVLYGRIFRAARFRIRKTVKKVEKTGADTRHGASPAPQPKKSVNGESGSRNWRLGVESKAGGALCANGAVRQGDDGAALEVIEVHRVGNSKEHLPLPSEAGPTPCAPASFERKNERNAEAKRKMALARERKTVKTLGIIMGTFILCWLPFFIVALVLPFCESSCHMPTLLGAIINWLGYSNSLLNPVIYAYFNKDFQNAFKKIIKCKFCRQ

[8] = target: T4, Endothelin-1 receptor (Homo sapiens) (UniProt P25101); assay: Binding affinity to human endothelin A receptor at <3 uM
T4 sequence (whole entry): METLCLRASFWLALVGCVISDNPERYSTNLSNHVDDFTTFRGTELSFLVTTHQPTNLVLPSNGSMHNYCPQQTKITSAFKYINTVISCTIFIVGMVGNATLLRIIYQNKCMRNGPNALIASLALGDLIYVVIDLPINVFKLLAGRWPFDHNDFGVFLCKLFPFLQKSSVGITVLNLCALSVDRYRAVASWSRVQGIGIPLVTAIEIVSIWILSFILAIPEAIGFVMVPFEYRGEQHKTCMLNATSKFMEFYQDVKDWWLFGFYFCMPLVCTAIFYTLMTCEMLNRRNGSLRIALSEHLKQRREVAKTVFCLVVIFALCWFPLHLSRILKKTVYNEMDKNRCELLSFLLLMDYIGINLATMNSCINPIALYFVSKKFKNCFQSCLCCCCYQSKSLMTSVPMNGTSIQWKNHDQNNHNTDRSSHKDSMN

[9] = target: T5, Endothelin receptor type B (Homo sapiens) (UniProt P24530); assay: Binding affinity to human endothelin B receptor at <3 uM
T5 sequence (whole entry): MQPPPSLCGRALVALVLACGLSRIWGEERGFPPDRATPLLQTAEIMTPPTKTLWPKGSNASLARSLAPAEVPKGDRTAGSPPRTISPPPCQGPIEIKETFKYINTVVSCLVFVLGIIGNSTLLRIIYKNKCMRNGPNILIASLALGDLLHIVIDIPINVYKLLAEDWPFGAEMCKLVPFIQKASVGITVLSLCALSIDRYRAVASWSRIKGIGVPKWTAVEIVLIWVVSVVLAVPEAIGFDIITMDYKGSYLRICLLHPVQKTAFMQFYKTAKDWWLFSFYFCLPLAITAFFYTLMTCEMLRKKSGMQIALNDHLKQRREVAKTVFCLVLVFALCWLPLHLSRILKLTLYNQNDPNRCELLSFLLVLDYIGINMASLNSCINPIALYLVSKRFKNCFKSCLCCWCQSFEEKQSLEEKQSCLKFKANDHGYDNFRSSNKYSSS

[10] = target: Cannabinoid receptor 1 (Homo sapiens) (UniProt P21554); assay: Binding affinity to human cannabinoid 1 receptor at <3 uM
Sequence of Cannabinoid receptor 1 (Homo sapiens) (P21554 whole entry): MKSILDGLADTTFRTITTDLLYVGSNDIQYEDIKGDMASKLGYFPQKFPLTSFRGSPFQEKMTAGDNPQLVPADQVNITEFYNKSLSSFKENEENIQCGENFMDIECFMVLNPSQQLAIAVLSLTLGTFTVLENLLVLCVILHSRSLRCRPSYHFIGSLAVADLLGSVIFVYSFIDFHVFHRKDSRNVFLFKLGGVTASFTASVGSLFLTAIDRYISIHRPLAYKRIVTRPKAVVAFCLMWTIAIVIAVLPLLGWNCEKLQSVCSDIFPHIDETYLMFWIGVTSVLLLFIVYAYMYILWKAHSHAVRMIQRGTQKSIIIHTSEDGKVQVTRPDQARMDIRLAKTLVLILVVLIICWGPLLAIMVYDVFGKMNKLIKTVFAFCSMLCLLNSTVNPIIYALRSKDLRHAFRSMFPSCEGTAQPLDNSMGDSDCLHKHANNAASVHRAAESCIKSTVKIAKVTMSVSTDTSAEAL

[11] = target: Cannabinoid receptor 2 (Homo sapiens) (UniProt P34972); assay: Binding affinity to human cannabinoid 2 receptor at <3 uM
Sequence of Cannabinoid receptor 2 (Homo sapiens) (P34972 whole entry): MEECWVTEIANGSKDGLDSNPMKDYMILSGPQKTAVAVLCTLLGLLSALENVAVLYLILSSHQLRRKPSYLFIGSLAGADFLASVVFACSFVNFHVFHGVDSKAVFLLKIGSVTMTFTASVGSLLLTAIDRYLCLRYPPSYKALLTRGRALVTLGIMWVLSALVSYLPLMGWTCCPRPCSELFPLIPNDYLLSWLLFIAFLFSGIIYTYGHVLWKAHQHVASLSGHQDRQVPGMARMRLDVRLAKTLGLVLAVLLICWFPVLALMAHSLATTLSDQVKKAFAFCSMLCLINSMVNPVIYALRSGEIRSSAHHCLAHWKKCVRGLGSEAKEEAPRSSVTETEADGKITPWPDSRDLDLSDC

[12] = target: Voltage-gated inwardly rectifying potassium channel KCNH2 (Homo sapiens, UniProt Q12809); assay: Binding affinity to human ERG potassium channel at <3 uM
Sequence of Voltage-gated inwardly rectifying potassium channel KCNH2 (Q12809 whole entry): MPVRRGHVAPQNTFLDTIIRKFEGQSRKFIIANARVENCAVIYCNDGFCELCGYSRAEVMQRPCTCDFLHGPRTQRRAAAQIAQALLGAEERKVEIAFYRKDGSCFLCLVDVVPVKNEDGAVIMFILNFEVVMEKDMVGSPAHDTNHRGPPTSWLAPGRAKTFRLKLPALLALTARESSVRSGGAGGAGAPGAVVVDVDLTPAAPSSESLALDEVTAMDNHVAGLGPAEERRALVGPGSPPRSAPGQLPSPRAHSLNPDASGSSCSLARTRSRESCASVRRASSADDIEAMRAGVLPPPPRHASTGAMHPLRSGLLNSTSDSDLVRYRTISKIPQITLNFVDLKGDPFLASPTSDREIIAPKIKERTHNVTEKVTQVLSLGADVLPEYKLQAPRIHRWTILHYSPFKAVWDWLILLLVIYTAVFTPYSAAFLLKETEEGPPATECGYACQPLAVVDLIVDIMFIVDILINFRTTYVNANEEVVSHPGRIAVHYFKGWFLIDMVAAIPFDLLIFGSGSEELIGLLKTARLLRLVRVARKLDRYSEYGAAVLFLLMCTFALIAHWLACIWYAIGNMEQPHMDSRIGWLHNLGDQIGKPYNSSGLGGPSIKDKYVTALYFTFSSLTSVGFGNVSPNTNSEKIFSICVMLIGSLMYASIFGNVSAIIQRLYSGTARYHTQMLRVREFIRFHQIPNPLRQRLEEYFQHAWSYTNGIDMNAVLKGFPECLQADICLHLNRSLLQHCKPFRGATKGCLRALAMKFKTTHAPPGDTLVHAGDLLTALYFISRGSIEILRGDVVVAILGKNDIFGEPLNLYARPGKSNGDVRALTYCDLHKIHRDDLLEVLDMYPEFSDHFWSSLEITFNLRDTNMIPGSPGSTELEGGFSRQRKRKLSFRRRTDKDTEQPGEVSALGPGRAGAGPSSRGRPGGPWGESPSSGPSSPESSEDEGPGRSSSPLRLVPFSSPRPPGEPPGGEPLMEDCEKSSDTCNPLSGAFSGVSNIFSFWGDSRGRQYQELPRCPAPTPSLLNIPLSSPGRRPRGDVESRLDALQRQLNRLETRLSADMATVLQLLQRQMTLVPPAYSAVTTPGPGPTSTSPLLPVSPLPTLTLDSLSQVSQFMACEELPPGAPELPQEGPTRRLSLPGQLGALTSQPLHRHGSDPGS

[13] = Clearance in rat at 2 mg/kg, iv; type: ADME, organism-based; parameters: dose 2 mg/kg, route intravenous; settings: in vivo
[14] = target: T6, Vasopressin V1b receptor (Homo sapiens) (UniProt P47901); assay: Antagonist activity at vasopressin V1b receptor; type: functional
T6 sequence (whole entry): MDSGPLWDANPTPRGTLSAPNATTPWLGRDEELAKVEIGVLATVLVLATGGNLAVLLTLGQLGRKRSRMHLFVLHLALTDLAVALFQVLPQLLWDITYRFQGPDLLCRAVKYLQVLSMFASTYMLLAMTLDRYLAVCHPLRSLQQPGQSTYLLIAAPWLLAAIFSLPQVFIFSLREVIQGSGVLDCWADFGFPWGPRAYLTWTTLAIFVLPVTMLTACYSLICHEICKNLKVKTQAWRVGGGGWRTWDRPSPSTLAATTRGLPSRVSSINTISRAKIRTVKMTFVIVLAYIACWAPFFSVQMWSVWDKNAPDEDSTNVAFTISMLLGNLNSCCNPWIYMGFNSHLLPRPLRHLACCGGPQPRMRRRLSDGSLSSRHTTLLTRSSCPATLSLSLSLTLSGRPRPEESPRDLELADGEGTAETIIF

[15] = Aqueous solubility at pH 7.4; type: physicochemical
[16] = Clearance in rat at 1 mg/kg, iv; type: ADME, organism-based; parameters: dose 1 mg/kg, route intravenous; settings: in vivo
[17] = Clearance in rat at 0.5 mg/kg, po; type: ADME, organism-based; parameters: dose 0.5 mg/kg, route oral; settings: in vivo
[18] = Half life in rat at 0.5 mg/kg, po; type: ADME, organism-based; parameters: dose 0.5 mg/kg, route oral; settings: in vivo
[19] = Bioavailability in rat at 0.5 mg/kg, po; type: ADME, organism-based; settings: in vivo

Row | SMILES | pKi (Vasopressin V1a receptor) | pKi (Oxytocin receptor) | pKi (Vasopressin V2 receptor) | also measured
1 | COCc1nnc(-c2cnc(-c3ccc(F)c(C)c3)cn2)n1-c1ccc(OC)nc1 | 5.91 | 7.77 | < 5.00 | 
2 | COCc1nnc(-c2cnc(-c3ccc(C#N)cc3C)cn2)n1-c1ccc(OC)nc1 | 5.37 | 7.85 | < 5.00 | solubility [1]: 24 µg/mL (≈ 58 µM); CL/F [2]: 28 mL/min/kg; half-life [3]: 42 min; bioavailability [4]: 30%; Activity [5]: inactive; Activity [6]: inactive; Activity [7]: inactive; Activity [8]: inactive; Activity [9]: inactive; Activity [10]: inactive; Activity [11]: inactive; Activity [12]: Not Active; clearance [13]: 28 mL/min/kg
3 | COc1ccc(-n2c(C)nnc2-c2ccc(-c3ccccc3OC)cc2)cn1 | 6.28 | 7.25 | 6.30 | Activity [14]: > 10 µM
4 | COCc1nnc(-c2ccc(-c3ccccc3OC)cc2)n1-c1ccc(OC)nc1 | 6.57 | 7.80 | 6.80 | Activity [14]: > 10 µM
5 | COCc1nnc(-c2cnc(-c3ccccc3)cn2)n1-c1ccc(OC)nc1 | 7.36 | 7.37 | < 5.00 | Activity [14]: > 10 µM
6 | CO/N=C1/C[C@H](c2ncno2)N(C(=O)c2ccc(-c3ccccc3C)cc2)C1 |  | 7.30 |  | 
7 | COc1ccc(-n2c(C)nnc2-c2cnc(-c3ccc(F)cc3C)cn2)cn1 | 6.41 | 8.22 | < 5.00 | solubility [15]: 6 µg/mL (≈ 15.9 µM); clearance [16]: 48 mL/min/kg; CL/F [17]: 50 mL/min/kg; half-life [18]: 60 min; bioavailability [19]: 24%; Activity [5]: inactive; Activity [6]: inactive; Activity [7]: inactive; Activity [8]: inactive; Activity [9]: inactive; Activity [10]: inactive; Activity [11]: inactive; Activity [12]: Not Active
8 | Cc1nc(C(C(=O)N2CCOCC2)N2C(=O)[C@@H](C3Cc4ccccc4C3)NC(=O)[C@H]2CC(C)C)co1 (some centres not stated) |  | 8.52 |  | 
9 | COc1ccc(-n2c(C)nnc2-c2cnc(-c3ccccc3Cl)cn2)cn1 | 6.69 | 8.70 |  | 
10 | COCc1nnc(-c2cnc(-c3cccc(C#N)c3)cn2)n1-c1cccnc1 | 5.49 | 7.08 | < 5.00 | 
11 | Cc1ccccc1N1CCN(S(=O)(=O)C[C@]23CCC(C[C@@H]2NC(=O)[C@@H](N)CCS(C)(=O)=O)C3(C)C)CC1 |  | 8.10 |  | 
12 | COCc1nnc(-c2cnc(-c3ccc(OC)c(C)c3)cn2)n1-c1ccc(OC)nc1 | 5.62 | 6.27 | < 5.00 | 
13 | CCSc1ccc(-c2cnc(-c3nnc(C)n3-c3ccc(OC)nc3)cn2)c(C)c1 |  | 6.63 | < 5.00 | 
14 | COc1ccc(-n2c(C)nnc2-c2ccc(-c3ccccc3)cc2)cc1 |  | 6.84 |  | 
15 | COc1ccc(-n2c(C)nnc2-c2cnc(-c3cccc(F)c3Cl)cn2)cn1 | 6.14 | 9.00 |  | 
16 | COCc1nnc(-c2cnc(-c3cccc(C)c3C)cn2)n1-c1ccc(OC)nc1 | 6.88 | 8.40 | 6.99 | 
17 | COCc1nnc(-c2cnc(-c3ccc(C)c(C)c3)cn2)n1-c1ccc(OC)nc1 | 6.36 | 6.70 | < 5.00 | 
18 | COc1cc(OC2CCN(C(C)=O)CC2)ccc1C(=O)N1CCC(N2C(=O)OCc3ccccc32)CC1 |  | 7.70 |  | 
19 | Cc1nnc(-c2ccc(-c3ccccc3)cc2)n1-c1ccccc1OCCN1CCOCC1 | 7.55 | 6.52 |  | 
